Experimental data as given in ChEMBL document CHEMBL1811754, “Sesquiterpene and xanthone derivatives from the sea fan-derived fungus Aspergillus sydowii PSU-F154” (J Nat Prod, 2011).
Activity calls are given as the source filed them. No cut-off for these calls is given here.

Each compound was assayed on Radical scavenging activity (assay: Antioxidant activity assessed as DPPH radical scavenging activity after 30 mins by spectrophotometry).
Type: functional
`CO[C@@](C)(CCCC(C)C)c1ccc(C(=O)O)cc1O` was tested, and the Activity was “inactive”.
In the case of `C/C(=C\CCC(C)C)c1ccc(CO)cc1O`, the Activity is reported as “inactive”.
`O=C1N[C@@H](Cc2c[nH]c3ccccc23)C(=O)N[C@H]1Cc1ccccc1` was tested, and the Activity was “inactive”.
`COC(=O)c1c(O)ccc2oc3cc(CO)cc(O)c3c(=O)c12` was tested, and the Activity was “inactive”.
`COC(=O)c1cccc2oc3cc(C)cc(O)c3c(=O)c12` was tested, and the Activity was “inactive”.
In the case of `COC(=O)[C@@]1(O)c2c(oc3cc(C)cc(O)c3c2=O)CC[C@H]1O`, the Activity is reported as “inactive”.
For `Cc1c(CCC(C)C)oc2cc(C(=O)O)ccc12`, the Activity was “inactive”.
`COC(=O)[C@@H]1c2c(oc3cc(CO)cc(O)c3c2=O)C=C[C@H]1O` was tested, and the IC50 was 17 µM.
With `COC(=O)c1cccc2oc3cc(CO)cc(O)c3c(=O)c12` the Activity was “inactive”.
